Source: paper PMC3814989, “Development of a Fluorescence Polarization Based High-Throughput Assay to Identify Casitas B-Lineage Lymphoma RING Domain Regulators” (PLoS ONE, 2013)
Read-outs that look alike come from different tables or passages of the source. Residues, ends and D or L forms follow the SMILES beside them.

Target: T1, c-Cbl (RING) protein (Homo sapiens, UniProt P22681)
T1 construct: c-Cbl (RING) protein including the linker and RING domain (codon 358–457) was tagged with glutathione S-transferase (GST); GST; made in house
T1 sequence (P22681 358-457): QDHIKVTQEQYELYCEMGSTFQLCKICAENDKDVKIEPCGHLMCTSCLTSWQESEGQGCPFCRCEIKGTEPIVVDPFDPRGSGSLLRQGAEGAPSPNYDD
Test: Competitive FP assay/screen: displacement of probe 1 from c-Cbl (RING) protein
Format: binding
Details: for Outcome in detergent-present screen: detergent-present screen (0.01% Triton X-100); for Hit verification outcome: hits from detergent-free screen, more extensive competitive binding assays
Description: Assays were carried out in detergent-free buffer system (PBS, pH = 7.4) or detergent-present buffer system (0.01% Triton X-100 in PBS, pH = 7.4). All FP measurements were made on 384-well, low-volume, black, v-bottom polystyrene microplates (Corning, Shanghai, China) using the ZS-2 plate reader. The binding affinities of fluorescein-labeled peptides/regulators binding to c-Cbl (RING) protein were verified by titrating an increasing concentration of protein into a constant concentration of labeled peptides. […] The total fluorescence (TF) values were also measured. The change in polarization was graphed as a function of the log of the protein concentration, and the dissociation constant (Kd) and the change in mP (ΔmP) were obtained from the resulting sigmoidal curve. The concentrations of fluorescein-labeled peptide and proteins were optimized.
Unlabeled short peptide was titrated against the FITC-labeled peptide (100 nmol/L) and protein (3 µmol/L) mixture. Plates were incubated at room temperature for up to 3 hours or 30 min at different temperatures.
Master mixtures containing fluorescein-labeled probe and Cbl (RING) protein Cbl (RING) protein, 3 µmol/L and probe 1 at 100 nmol/L) in a reaction volume of 19 µl were prepared and loaded to plates. The library compounds (10 µmol/L – 0.078 µmol/L, half dilutions) were prepared separately and transferred into the assay plates. The first and last columns of each plate were used as positive and negative control wells. Wells containing the drug only were used as controls to detect auto-fluorescence of the compounds in the total fluorescence assay. After subtraction of the background signal, data was processed and the IC50 values were determined by non-linear least square fitting (four parameters) using SigmaPlot 11.0.
Hits were validated using the primary screening assay conditions in triplicate.

[1] = primary screen, detergent-free system, 10 to 0.078 µmol/L, 5% DMSO, read-out: IC50 Primary screen DF
[2] = primary screen, detergent-present system (0.01% Triton X-100), 10 to 0.078 µmol/L, 5% DMSO, read-out: IC50 Primary screen DP
[3] = validated in triplicate, detergent-free system, read-out: IC50 Validated DF
[4] = validated in triplicate, detergent-present system (0.01% Triton X-100), NR: no dose response, read-out: IC50 Validated DP

| IC50 [1] [µM] | IC50 [2] [µM] | IC50 [3] [µM] | IC50 [4] [µM] | Compound | Outcome in detergent-present screen | Hit verification outcome | other results |
| --- | --- | --- | --- | --- | --- | --- | --- |
| 4.8 | 4 | 4.2 ± 0.5 | 4 ± 0.8 | CO[C@]1(CC[C@@H](C)CO[C@@H]2O[C@H](CO)[C@@H](O)[C@H](O)[C@H]2O)O[C@H]2C[C@H]3[C@@H]4CC=C5C[C@@H](O[C@@H]6O[C@H](CO)[C@@H](O[C@@H]7O[C@@H](C)[C@H](O)[C@@H](O)[C@H]7O)[C@H](O)[C@H]6O[C@@H]6O[C@@H](C)[C@H](O)[C@@H](O)[C@H]6O)CC[C@]5(C)[C@H]4CC[C@]3(C)[C@H]2[C@@H]1C [Methylprotodioscin] | – | – | – |
| 3.5 | 3.8 | 4.6 ± 0.8 | 4.5 ± 1.1 | C[C@]1(O)C[C@@H](O)[C@@H]2C=CO[C@@H](O[C@@H]3O[C@H](CO)[C@@H](O)[C@H](O)[C@H]3O)[C@@H]21 [Leonuride] | – | – | IC50 (primary screen, detergent-free system, 10 to 0.078 µmol/L, 5% DMSO, listed as leonuride, read-out: IC50 Primary screen DF): < 5 µM |
| – | – | – | – | CC(=O)N1CCC[C@H]1C(=O)N[C@@H](C)C(=O)N[C@@H](CCCCN)C(=O)N1CCC[C@H]1C(=O)N1CCC[C@H]1C(N)=O [Peptide 2, Ac-PAKPP-NH2] (Ac-PAKPP-NH2) | – | – | Effect of unlabeled peptide on FP values (detergent-free system, c-Cbl (RING) protein 3 µmol/L + 100 nmol/L probe 1): does not alter the FP values |
| – | – | – | – | O=c1c(O)c(-c2ccc(O)c(O)c2)oc2cc(O)cc(O)c12 [Quercetin] | negative | false positive hits | – |
| – | – | – | – | CC(=O)N1CCC[C@H]1C(=O)N[C@@H](Cc1ccccc1)C(=O)N[C@@H](CCCCN)C(=O)N1CCC[C@H]1C(=O)N1CCC[C@H]1C(N)=O [Peptide 1, Ac-PFKPP-NH2] (Ac-PFKPP-NH2) | – | – | IC50 (detergent-free system, c-Cbl (RING) protein 3 µmol/L + 100 nmol/L probe 1, read-out: IC50, unlabeled peptide competing with probe 1): 1.05 ± 0.09 µM; IC50 (detergent-present system (0.01% Triton X-100), c-Cbl (RING) protein 3 µmol/L + 100 nmol/L probe 1, read-out: IC50, unlabeled peptide competing with probe 1): 1.06 ± 0.09 µM |
| 5 | > 10 | 4.7 ± 0.4 | > 10 | Tehmaglutin | negative | false positive hits | IC50 (primary screen, detergent-free system, 10 to 0.078 µmol/L, 5% DMSO, listed as tehmaglutin, read-out: IC50 Primary screen DF): < 5 µM |
